One assay deals with ROCK2 (Homo sapiens, UniProt O75116). Put plainly: ROCK2 kinase IC50 assay (CISBIO HTRF KinEASE-STK S2 kit). The conditions noted are these: incubated at room temperature for 2 hours. It is filed as biochemical. In short, it runs like this:
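HTRF KinEASE-STK S2 format with recombinant ROCK2 (1.4 ng per well), STK-S2 substrate and ATP from 5× working solutions of 1.5 μM each, run 2 h at room temperature. Nine-point dilutions from 10000 nM top concentration; 665/615 nm emission ratio normalised to no-compound and no-kinase controls, curve-fitted for IC50.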
Background: Time-resolved FRET reads energy transfer from a long-lived donor to a nearby acceptor.

The target in the next assay is ROCK1 (Homo sapiens (Human), UniProt Q13464). Put plainly: ROCK1 kinase IC50 assay (biological test method similar to the ROCK2 assay). It is filed as biochemical. The gist of the method:
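HTRF KinEASE-STK S2 assay with the STK-S2 biotinylated substrate and ATP, at 5× working solutions of 1.5 µM each. Kinase reaction with 9-point compound dilutions ran 2 h at room temperature, followed by 1 h streptavidin-XL665/Cryptate detection. The 665/615 nm ratio was normalised to no-compound and no-kinase wells, and IC50 was obtained by curve fitting.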

SMILES strings stand for the structures.

ROCK1, sequence (Q13464 whole entry, species assumed): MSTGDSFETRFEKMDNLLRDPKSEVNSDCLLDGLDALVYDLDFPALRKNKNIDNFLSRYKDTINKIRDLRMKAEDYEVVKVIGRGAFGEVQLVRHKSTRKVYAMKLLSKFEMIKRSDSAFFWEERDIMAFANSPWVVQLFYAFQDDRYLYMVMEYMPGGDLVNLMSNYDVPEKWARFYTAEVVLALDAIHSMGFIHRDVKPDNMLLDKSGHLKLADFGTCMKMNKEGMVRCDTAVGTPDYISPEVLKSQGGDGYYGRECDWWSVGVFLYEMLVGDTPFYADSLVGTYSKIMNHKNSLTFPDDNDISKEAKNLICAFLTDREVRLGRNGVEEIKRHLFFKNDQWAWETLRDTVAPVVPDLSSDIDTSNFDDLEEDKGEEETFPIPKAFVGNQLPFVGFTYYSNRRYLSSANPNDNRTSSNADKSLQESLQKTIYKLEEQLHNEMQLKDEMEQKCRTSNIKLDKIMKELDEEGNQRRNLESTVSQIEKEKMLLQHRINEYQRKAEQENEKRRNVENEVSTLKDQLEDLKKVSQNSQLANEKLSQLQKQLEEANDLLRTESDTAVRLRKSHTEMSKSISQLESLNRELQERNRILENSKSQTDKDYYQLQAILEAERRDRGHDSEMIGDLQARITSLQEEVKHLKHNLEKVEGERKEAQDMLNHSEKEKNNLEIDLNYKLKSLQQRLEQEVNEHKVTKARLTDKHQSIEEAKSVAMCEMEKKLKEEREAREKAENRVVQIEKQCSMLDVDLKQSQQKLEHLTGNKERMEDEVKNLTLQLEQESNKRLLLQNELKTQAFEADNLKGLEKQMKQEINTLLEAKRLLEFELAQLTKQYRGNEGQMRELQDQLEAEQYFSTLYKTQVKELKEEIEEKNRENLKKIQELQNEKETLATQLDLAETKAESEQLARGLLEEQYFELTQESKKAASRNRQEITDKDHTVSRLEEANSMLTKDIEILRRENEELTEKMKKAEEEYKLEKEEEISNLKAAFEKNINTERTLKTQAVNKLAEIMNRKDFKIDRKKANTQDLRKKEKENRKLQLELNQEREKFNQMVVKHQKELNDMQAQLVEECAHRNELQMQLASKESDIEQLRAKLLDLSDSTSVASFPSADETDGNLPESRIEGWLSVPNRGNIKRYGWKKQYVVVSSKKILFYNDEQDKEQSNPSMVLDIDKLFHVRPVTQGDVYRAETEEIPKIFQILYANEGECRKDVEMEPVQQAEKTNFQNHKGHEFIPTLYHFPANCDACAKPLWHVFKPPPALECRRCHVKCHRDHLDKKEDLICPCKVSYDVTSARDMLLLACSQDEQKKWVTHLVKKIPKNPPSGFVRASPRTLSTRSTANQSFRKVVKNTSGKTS

One may read the IC50 as the concentration that inhibits the measured activity by half. A low value points to inhibition by little substance. With `C=Cn1c(C(=O)N2CC(F)(F)C2)cc2ccc(-c3nccc(Nc4ccc(-c5cn[nH]c5)cc4)n3)cc21` [TDI01923, (6-(4-((4-(1H-pyrazol-4-yl)phenyl)amino)pyrimidin-2-yl)-1-vinyl-1H-indol-2-yl)(3,3-difluoroazetidin-1-yl)methanone], the IC50 is 0.05 µM against ROCK2 and above 10 µM against ROCK1.
The matching figures for `c1cc(Nc2ccc(-c3cn[nH]c3)nc2)nc(-c2ccc3cc(-c4nccs4)[nH]c3c2)n1` [TDI01940, N-(6-(1H-pyrazol-4-yl)pyridin-3-yl)-2-(2-(thiazol-2-yl)-1H-indol-6-yl)pyrimidin-4-amine]: 0.147 µM and above 10 µM.
In the same order, the values of `Cn1c(C(=O)N2CC(F)(F)C2)cc2ccc(-c3nc(Nc4ccc(-c5cn[nH]c5)cc4)c4ccsc4n3)cc21` [TDI01947, (6-(4-((4-(1H-pyrazol-4-yl)phenyl)amino)thieno[2,3-d]pyrimidin-2-yl)-1-methyl-1H-indol-2-yl)(3,3-difluoroazetidin-1-yl)methanone] are 0.088 µM and above 10 µM.
The matching figures for `Cn1c(C(=O)N2CC(F)(F)C2)cc2ccc(-c3nc(Nc4ccc(-c5cn[nH]c5)cc4)c4cccn4n3)cc21` [TDI01948, (6-(4-((4-(1H-pyrazol-4-yl)phenyl)amino)pyrrolo[2,1-f][1,2,4]triazin-2-yl)-1-methyl-1H-indol-2-yl)(3,3-difluoroazetidin-1-yl)methanone]: 0.103 µM and above 10 µM.
On to `Cn1c(C(=O)N2CC(F)(F)C2)cc2ccc(-c3ncc(Cl)c(Nc4ccc(-c5cn[nH]c5)cc4)n3)cc21` [TDI01949, (6-(4-((4-(1H-pyrazol-4-yl)phenyl)amino)-5-chloropyrimidin-2-yl)-1-methyl-1H-indol-2-yl)(3,3-difluoroazetidin-1-yl)methanone], for which the IC50 against ROCK2 is 0.059 µM; at ROCK1, above 10 µM.
The matching figures for `O=C(NC1CC(F)(F)C1)N1Cc2ccc(-c3nccc(Nc4ccc(-c5cn[nH]c5)cc4)n3)cc2C1` [TDI01951, 5-(4-((4-(1H-pyrazol-4-yl)phenyl)amino)pyrimidin-2-yl)-N-(3,3-difluorocyclobutyl) isoindoline-2-carboxamide]: 0.027 µM and above 10 µM.
In the same order, the values of `Cc1[nH]ncc1-c1ccc(Nc2ccnc(-c3ccc4cc(C(=O)N5CC(F)(F)C5)n(C)c4c3)n2)cc1` [TDI01955, (3,3-difluoroazetidin-1-yl)(1-methyl-6-(4-((4-(5-methyl-1H-pyrazol-4-yl)phenyl)amino)pyrimidin-2-yl)-1H-indol-2-yl)methanone] are 0.033 µM and above 10 µM.
The matching figures for `O=C(N1CCc2cc(-c3nccc(Nc4ccc(-c5cn[nH]c5)cc4)n3)ccc2C1)N1CC(F)(F)C1` [TDI01959, (6-(4-((4-(1H-pyrazol-4-yl)phenyl)amino)pyrimidin-2-yl)-3,4-dihydroisoquinolin-2(1H)-yl)(3,3-difluoroazetidin-1-yl)methanone]: 0.131 µM and above 10 µM.
As to `Cn1c(C(=O)N2CC(F)(F)C2)cc2ccc(-c3nc4c(c(Nc5ccc(-c6cn[nH]c6)cc5)n3)CCC4)cc21` [TDI01960, (6-(4-((4-(1H-pyrazol-4-yl)phenyl)amino)-6,7-dihydro-5H-cyclopenta[d]pyrimidin-2-yl)-1-methyl-1H-indol-2-yl)(3,3-difluoroazetidin-1-yl)methanone], the IC50 is 0.05 µM on ROCK2 and above 10 µM against ROCK1.
In the same order, the values of `O=C(C1CC(F)(F)C1)N1Cc2ccc(-c3nccc(Nc4ccc5[nH]ncc5c4)n3)cc2C1` [TDI01967, (5-(4-((1H-indazol-5-yl)amino)pyrimidin-2-yl)isoindolin-2-yl)(3,3-difluorocyclobutyl) methanone] are 0.045 µM and above 10 µM.
The matching figures for `CN1CCC[C@H]1C(=O)N1Cc2ccc(-c3nccc(Nc4ccc(-c5cn[nH]c5)cc4)n3)cc2C1` [TDI01968A, 5-(4-((4-(1H-pyrazol-4-yl)phenyl)amino)pyrimidin-2-yl)-2-(methyl-L-prolyl)isoindoline]: 0.296 µM and above 10 µM.
Consider `CN1CCc2nc(C(=O)N3Cc4ccc(-c5nccc(Nc6ccc(-c7cn[nH]c7)cc6)n5)cc4C3)sc2C1` [TDI01973, (5-(4-((4-(1H-pyrazol-4-yl)phenyl)amino)pyrimidin-2-yl)isoindolin-2-yl)(5-methyl-4,5,6,7-tetrahydrothiazolo[5,4-c]pyridin-2-yl)methanone], for which the IC50 against ROCK2 was 0.052 µM; on ROCK1 it was above 10 µM.
The matching figures for `CN(C)C(=O)N1Cc2ccc(-c3nc(Nc4ccc(-c5cn[nH]c5)cc4)c4occc4n3)cc2C1` [TDI01974, 5-(4-((4-(1H-pyrazol-4-yl)phenyl)amino)furo[3,2-d]pyrimidin-2-yl)-N,N-dimethylisoindoline-2-carboxamide]: 0.186 µM and above 10 µM.
The matching figures for `O=C(C1CC(F)(F)C1)N1Cc2ccc(-c3nccc(Nc4ccc(-c5cn[nH]c5)cn4)n3)cc2C1` [TDI01979, (5-(4-((5-(1H-pyrazol-4-yl)pyridin-2-yl)amino)pyrimidin-2-yl)isoindolin-2-yl)(3,3-difluorocyclobutyl)methanone]: 0.137 µM and above 10 µM.
The matching figures for `CC(O)C(=O)N1Cc2ccc(-c3nccc(Nc4ccc(-c5cn[nH]c5)cc4)n3)cc2C1` (stereo not drawn) [TDI01989, 1-(5-(4-((4-(1H-pyrazol-4-yl)phenyl)amino)pyrimidin-2-yl)isoindolin-2-yl)-2-hydroxypropan-1-one]: 0.385 µM and above 10 µM.

Source of the values: patent US11390609B2, “Rho-associated protein kinase inhibitor, pharmaceutical composition comprising same, and preparation method and use thereof” (BEIJING TIDE PHARMACEUTICAL CO., LTD., priority 2017, dated 2022).
